We go through four compounds from US20210323950A1, “HERBICIDALLY ACTIVE BICYCLIC BENZOYLPYRAZOLES” (Bayer Aktiengesellschaft, priority 2018, published 2021).

Type in all cases: in vivo
In test [1] the test system is Viola tricolor (VIOTR). Description: Pre-emergence herbicidal action against VIOTR. Particulars: 80 g/ha, scored visually after about 3 weeks vs untreated controls. An excerpt: (§1) VIOTR: Viola tricolor 1. Pre-Emergence Herbicidal Action and Crop Plant Compatibility Seeds of monocotyledonous and dicotyledonous weed plants and crop plants are placed in plastic or organic planting pots and covered with soil. The compounds of the invention, formulated in the form of wettable powders (WP) or as emulsion concentrates (EC), are then applied onto the surface of the covering soil as aqueous suspension or emulsion with addition of 0.5% additive at a water application rate of […] (converted). After the treatment, the pots are placed in a greenhouse and kept under good growth conditions for the trial plants. After about 3 weeks, the effect of the preparations is scored visually in comparison with untreated controls as percentages. The tables below show the herbicidal activity of numerous compounds according to the invention against important harmful plants. For example, 100% activity=the plants have died, 0% activity=like control plants.

The test system of test [2] is Setaria viridis (SETVI). Description: Post-emergence herbicidal action against SETVI. Particulars: 20 g/ha, post-emergence at one-leaf stage, rated visually after about 3 weeks vs untreated controls. How it is done: (§2) SETVI: Setaria viridis 2. Post-Emergence Herbicidal Action and Crop Plant Compatibility Seeds of monocotyledonous and dicotyledonous weeds and crop plants are placed in sandy loam in plastic or organic planting pots, covered with soil and cultivated in a greenhouse under controlled growth conditions. 2 to 3 weeks after sowing, the test plants are treated at the one-leaf stage. The compounds of the invention, formulated in the form of wettable powders (WP) or as emulsion concentrates (EC), are then sprayed onto the green parts of the plants as aqueous suspension or emulsion with addition of 0.5% additive at a water application rate of […] (converted). After the test plants had been kept in the greenhouse under optimum growth conditions for about 3 weeks, the activity of the preparations is rated visually in comparison to untreated controls. The tables below show the herbicidal activity of numerous compounds according to the invention against important harmful plants. For example, 100% activity=the plants have died, 0% activity=like control plants.

In test [3] the test system is Echinochloa crus-galli (ECHCG). Description: Pre-emergence herbicidal action against ECHCG. The following applies: 80 g/ha, scored visually after about 3 weeks vs untreated controls.
Description: as §1, with “ECHCG: Echinochloa crus-galli” for “VIOTR: Viola tricolor”

Test [4] concerns Abutilon theophrasti (ABUTH). Description: Post-emergence herbicidal action against ABUTH. The following applies: 20 g/ha, post-emergence at one-leaf stage, rated visually after about 3 weeks vs untreated controls. How it is done: as §2, with “ABUTH: Abutilon theophrasti” for “SETVI: Setaria viridis”
Test [5] relates to Stellaria media (STEME). Description: Pre-emergence herbicidal action against STEME. The following applies: 80 g/ha, scored visually after about 3 weeks vs untreated controls.
Description: as §1, with “STEME: Stellaria media” for “VIOTR: Viola tricolor”

Test [6] has as its system Echinochloa crus-galli (ECHCG). Description: Post-emergence herbicidal action against ECHCG. Particulars: 20 g/ha, post-emergence at one-leaf stage, rated visually after about 3 weeks vs untreated controls. How it is done: as §2, with “ECHCG: Echinochloa crus-galli” for “SETVI: Setaria viridis”
The subject of test [7] is Setaria viridis (SETVI). Description: Pre-emergence herbicidal action against SETVI. Particulars: 80 g/ha, scored visually after about 3 weeks vs untreated controls.
Description: as §1, with “SETVI: Setaria viridis” for “VIOTR: Viola tricolor”

Test [8] has as its system Abutilon theophrasti (ABUTH). Description: Pre-emergence herbicidal action against ABUTH. The following applies: 80 g/ha, scored visually after about 3 weeks vs untreated controls.
Description: as §1, with “ABUTH: Abutilon theophrasti” for “VIOTR: Viola tricolor”

For test [9], the system named is Amaranthus retroflexus (AMARE). Description: Pre-emergence herbicidal action against AMARE. The following applies: 80 g/ha, scored visually after about 3 weeks vs untreated controls.
Description: as §1, with “AMARE: Amaranthus retroflexus” for “VIOTR: Viola tricolor”

The test system of test [10] is Veronica persica (VERPE). Description: Pre-emergence herbicidal action against VERPE. The following applies: 80 g/ha, scored visually after about 3 weeks vs untreated controls.
Description: as §1, with “VERPE: Veronica persica” for “VIOTR: Viola tricolor”

For test [11], the system named is Stellaria media (STEME). Description: Post-emergence herbicidal action against STEME. Particulars: 20 g/ha, post-emergence at one-leaf stage, rated visually after about 3 weeks vs untreated controls. The method, then: as §2, with “STEME: Stellaria media” for “SETVI: Setaria viridis”
Test [12] relates to Amaranthus retroflexus (AMARE). Description: Post-emergence herbicidal action against AMARE. Particulars: 20 g/ha, post-emergence at one-leaf stage, rated visually after about 3 weeks vs untreated controls. How it is done: as §2, with “AMARE: Amaranthus retroflexus” for “SETVI: Setaria viridis”

For the compound `CCn1ncc(C(=O)c2ccc(C(F)(F)F)c3c2OCCS3)c1O` [Example 1-20], the “Pre-emergence action against VIOTR” value in test [1] was found to be 100%. The “Post-emergence action against SETVI” value in test [2] was 80%. Also, the “Pre-emergence action against ECHCG” value in test [3] turned out to be 100%. In addition, in test [4], the “Post-emergence action against ABUTH” value was determined as 80%. Also, the “Pre-emergence action against STEME” value in test [5] was found to be 100%. In test [6], the “Post-emergence action against ECHCG” value is reported as 80%. Further, in test [7], the “Pre-emergence action against SETVI” value is reported as 100%. In addition, the “Pre-emergence action against ABUTH” value in [8] is recorded as 100%. The “Pre-emergence action against AMARE” value in test [9] was found to be 100%.

Regarding `Cc1nn(C)c(O)c1C(=O)c1ccc(C(F)(F)F)c2c1OCCS2` [Example 1-25], the “Pre-emergence action against VIOTR” value in test [1] was 100%. Further, the “Pre-emergence action against VERPE” value in test [10] is 80%. For the same compound, the “Pre-emergence action against ECHCG” value in test [3] amounted to 90%. Besides, the “Pre-emergence action against STEME” value in test [5] is listed as 90%. In [6], the “Post-emergence action against ECHCG” value was 90%. For the same compound, the “Pre-emergence action against SETVI” value in test [7] was 100%. In addition, in test [8], the “Pre-emergence action against ABUTH” value came out at 100%. In addition, the “Pre-emergence action against AMARE” value in test [9] amounted to 100%. Besides, the “Post-emergence action against STEME” value in [11] is 100%.

Consider `CCn1ncc(C(=O)c2ccc(C(F)(F)F)c3c2SCS3)c1O` [Example 1-63], for which, in test [1], the “Pre-emergence action against VIOTR” value is given as 100%. Moreover, the “Post-emergence action against ABUTH” value in test [4] came to 80%. The “Pre-emergence action against STEME” value in [5] is recorded as 90%. The “Post-emergence action against ECHCG” value in [6] is reported as 80%. Besides, in test [12], the “Post-emergence action against AMARE” value is recorded as 100%. Besides, the “Pre-emergence action against AMARE” value in test [9] is 100%. The “Post-emergence action against STEME” value in test [11] was 80%.

In the case of `Cn1nc(C2CC2)c(C(=O)c2ccc(C(F)(F)F)c3c2OCCS3(=O)=O)c1O` [Example 1-119], in test [1], the “Pre-emergence action against VIOTR” value was determined as 100%. The “Pre-emergence action against VERPE” value in [10] was 90%. The “Pre-emergence action against ECHCG” value in test [3] was 80%. The “Post-emergence action against ABUTH” value in test [4] is 90%. Moreover, the “Pre-emergence action against STEME” value in test [5] turned out to be 100%. Besides, the “Post-emergence action against AMARE” value in test [12] was 100%. In addition, the “Pre-emergence action against ABUTH” value in [8] is on record as 100%. The “Pre-emergence action against AMARE” value in test [9] came to 100%. Besides, the “Post-emergence action against STEME” value in [11] is 100%.
